Values joined by “and” are separate entries in the source; they are usually repeats but may differ in a detail not shown here. Equal values may be shown once.

The text below walks through data of patent US9884821B2, “N1-cyclic amine-N5-substituted biguanide derivatives, methods of preparing the same and pharmaceutical composition comprising the same” (IMMUNOMET THERAPEUTICS INC., priority 2013, dated 2018).

In one experiment the test system is HCT116 cells. Description: Effect of inhibiting cancer cell proliferation (MTT) in HCT116 cells. Particulars: for GI50 / inhibition at 25 µM / inhibition at 100 µM: Homo sapiens, HCT-116, 48 h; for inhibition at 25 µM: read-out: Cell growth inhibition (%) at 25 μM; for inhibition at 100 µM: read-out: Cell growth inhibition (%) at 100 μM. The format is cell-based, human. The text has this:
HCT116 cells derived from human colorectal cancer were used, and an effect of inhibiting cancer cell proliferation of the biguanide derivative was confirmed by measuring a concentration value (cell growth inhibition concentration, GIC50) at which cell growth was inhibited by 50% using a 3-(4,5-dimethylthiazol-2-yl)-2,5-diphenyltetrazolium bromide (MTT) reagent.
First, HCT116 cells (purchased from the KCLB) were put on a 96-well plate and cultured in a DMEM medium supplemented with 10% fatal bovine serum (commercially available from Gibco Life Technologies (US)) for 16 hours so that approximately 5,000 cells were counted in each well. Subsequently, to obtain the GIC50 value of each compound, the culture media were treated with 100 μM, 25 μM, 6.25 μM, 1.56 μM or 0.39 μM of the compound, and then cultured for 48 hours. In order to determine whether the cells survived after treatment with the compounds, MTT (commercially available from AMRESCO (US)) was added to the culture media which were then cultured for another 3 hours. Formed formazane crystals were dissolved using dimethyl sulfoxide (DMSO) and the absorbance of the resulting solution was measured at 560 nm. After the 48-hour culture, a ratio of a living cell count on a well plate treated with the compounds synthesized in the Examples to a cell count cultured on a well plate not treated with the compound was indicated as cell viability (%) according to the concentration of each treated compound. The cell viability (%) was used to plot a cell viability curve graph and calculate a concentration (GIC50) value of the compound at which the growth was inhibited by 50%, thereby confirming the inhibition effect of cancer cell proliferation.

The test system of another experiment is AMPK. Description: AMPK activation effect (AMPK [pT172] ELISA) in MCF7 cells. The format is cell-based, human. As to conditions: 24 hours; for AMPK activation effect (%) 5 μM / AMPK activation effect (%) 10 μM / AMPK activation effect (%) 50 μM: AMPKα Thr172 phosphorylation relative to untreated cells; for AC150: concentration at which AMPK activation reached 150%. Here is the method: ELISA kit (Invitrogen, Catalog No. KH00651).
MCF7 cells were cultured in a DMEM medium supplemented with 10% fatal bovine serum (commercially available from Gibco Life Technologies (US)). Thereafter, the cultured MCF7 cells were put into a 6-well plate with approximately 5×10^5 cells per well, and cultured in an incubator supplied with 5% CO2. Culture media were treated with the derivatives synthesized in the Examples at concentrations of 5, 10 and 50 uM, and then cultured for 24 hours. […] Subsequently, the cells were lysed according to a method presented in the operation manual of the AMPK [pT172] ELISA kit, and 20 μg of a cell lysate was then yielded through protein assay. Thereafter, the AMPK activation effect was obtained by determining a degree of phosphorylation of a 172nd threonine residue (Thr172) of the AMPKα from the cell lysate according to the method presented in the operation manual of the AMPK [pT172] ELISA kit.
For orientation: In an ELISA, binding on a coated surface is turned into a signal by an enzyme label.

Regarding `CC1CCCN(C(=N)NC(=N)NCc2ccc(OC(F)(F)F)cc2)C1.Cl` (centres unmarked) [Example 84, N1-(3-methyl)piperidine-N5-(4-trifluoromethoxy)benzyl biguanide hydrochloride], in the experiment on HCT116 cells, growth was halved (GI50) at 10.4 µM and the inhibition at 25 µM is 97%. Besides, in the experiment on AMPK, the “AMPK activation effect (%) 5 μM” value is recorded as 317%, the “AMPK activation effect (%) 10 μM” value was determined as 555% and the AC150 was determined as 1.1 µM.

`Cl.N=C(NC(=N)N1CC=CCC1)Nc1ccc(Cl)c(C(F)(F)F)c1` [Example 33, N1-1,2,3,6-tetrahydropyridine-N5-(4-chloro, 3-trifluoromethyl)phenyl biguanide hydrochloride]: the GI50 with HCT116 cells came out at 3.7 µM. The inhibition at 100 µM in the experiment on HCT116 cells (100 μM) came to 99.4%. Besides, in the experiment with AMPK, the “AMPK activation effect (%) 10 μM” value worked out at 992% and the AC150 came to 0.79 µM.

Turning to `CC1=CCN(C(=N)NC(=N)Nc2ccc(F)cc2)C1.Cl` [Example 20, N1-(3-methyl)-1,2-dihydropyrrole-N5-(4-fluoro)phenyl biguanide hydrochloride], in the experiment on HCT116 cells, the GI50 amounted to 54.8 µM. The inhibition at 100 µM in the experiment with HCT116 cells (100 μM) is 93.1%. In the experiment with AMPK, the “AMPK activation effect (%) 10 μM” value is reported as 83%, the “AMPK activation effect (%) 50 μM” value amounted to 172% and the AC150 came to 38.3 µM.

As to `Cl.N=C(NC(=N)N1CC=CCC1)Nc1ccccc1` [Example 39, N1-1,2,3,6-tetrahydropyridine-N5-phenyl biguanide hydrochloride], halving of growth with HCT116 cells (GI50) required 124 µM. In the experiment on HCT116 cells (100 μM), the inhibition at 100 µM is 39.8%. Also, in the experiment with AMPK, the “AMPK activation effect (%) 10 μM” value was 96%, the “AMPK activation effect (%) 50 μM” value is reported as 138% and the AC150 amounted to 67.2 µM.

Regarding `Cl.N=C(NCc1cccc(C(F)(F)F)c1)NC(=N)N1CC=CC1` [Example 12, N1-1,2-dihydropyrrole-N5-(3-trifluoromethyl)benzyl biguanide hydrochloride], the GI50 with HCT116 cells is 84.8 µM. In addition, in the experiment on HCT116 cells (100 μM), the inhibition at 100 µM was 53.8%. For the same compound, in the experiment with AMPK, the “AMPK activation effect (%) 10 μM” value is on record as 97%, the “AMPK activation effect (%) 50 μM” value came out at 357% and the AC150 amounted to 13.8 µM.

In turn, `Cl.N=C(NC(=N)N1CC=CC1)Nc1ccc(Cl)cc1` [Example 8, N1-1,2-dihydropyrrole-N5-(4-chloro)phenyl biguanide hydrochloride] came in with a GI50 with HCT116 cells of 42.8 µM. Moreover, the inhibition at 100 µM in the experiment with HCT116 cells (100 μM) was 99.1%. In addition, in the experiment with AMPK, the “AMPK activation effect (%) 10 μM” value came to 139%, the “AMPK activation effect (%) 50 μM” value stood at 515% and the AC150 came to 8.3 µM.

As to `CC1=CCN(C(=N)NC(=N)Nc2cccc(OC(F)(F)F)c2)C1.Cl` [Example 25, N1-(3-methyl)-1,2-dihydropyrrole-N5-(3-trifluoromethoxy)phenyl biguanide hydrochloride], halving of growth in the experiment with HCT116 cells (GI50) required 4.9 µM. For the same compound, the inhibition at 100 µM in the experiment on HCT116 cells (100 μM) turned out to be 96.6%. In addition, in the experiment with AMPK, the “AMPK activation effect (%) 10 μM” value turned out to be 376% and the AC150 stood at 2.2 µM.

In the experiment on HCT116 cells, `Cl.N=C(NC(=N)N1CC=CC1)Nc1ccccc1` [Example 44, N1-1,2-dihydropyrrole-N5-phenyl biguanide hydrochloride] yielded a GI50 of more than 100 µM. In addition, in the experiment with HCT116 cells (100 μM), the inhibition at 100 µM was found to be 27.8%. For the same compound, in the experiment on AMPK, the “AMPK activation effect (%) 10 μM” value was 289%, the “AMPK activation effect (%) 50 μM” value turned out to be 577% and the AC150 turned out to be 1.7 µM.

`Cl.N=C(NCc1cccc(OC(F)(F)F)c1)NC(=N)N1CC=CC1` [Example 14, N1-1,2-dihydropyrrole-N5-(3-trifluoromethoxy)benzyl biguanide hydrochloride] had a GI50 in the experiment on HCT116 cells of 17.5 µM. In addition, in the experiment on HCT116 cells (100 μM), the inhibition at 100 µM turned out to be 98.8%. In the experiment with AMPK, the “AMPK activation effect (%) 10 μM” value was found to be 151%, the “AMPK activation effect (%) 50 μM” value was 507% and the AC150 turned out to be 8.4 µM.

Turning to `CC1CCCN(C(=N)NC(=N)Nc2ccc(F)c(C(F)(F)F)c2)C1.Cl` (centres unmarked) [Example 71, N1-(3-methyl)piperidine-N5-(4-fluoro, 3-trifluoromethyl)phenyl biguanide hydrochloride], in the experiment with HCT116 cells, the GI50 amounted to 5.7 µM and the inhibition at 25 µM came out at 100%. In the experiment with AMPK (hydrochloride), the “AMPK activation effect (%) 5 μM” value stood at 259%, the “AMPK activation effect (%) 10 μM” value is recorded as 430% and the AC150 was determined as 1.6 µM.

In the experiment with HCT116 cells, `Cl.N=C(NC(=N)N1CC=CC1)Nc1cccc(C(F)(F)F)c1` [Example 6, N1-1,2-dihydropyrrole-N5-(3-trifluoromethyl)phenyl biguanide hydrochloride] gave a GI50 of 12.9 µM. Also, the inhibition at 100 µM in the experiment with HCT116 cells (100 μM) came to 99.6%. For the same compound, in the experiment with AMPK, the “AMPK activation effect (%) 10 μM” value is on record as 124%, the “AMPK activation effect (%) 50 μM” value is recorded as 136% and the AC150 was more than 50 µM.

On to `CC1CCCN(C(=N)NC(=N)Nc2ccc(C(F)(F)F)c(F)c2)C1.Cl` (centres unmarked) [Example 70, N1-(3-methyl)piperidine-N5-(3-fluoro, 4-trifluoromethyl)phenyl biguanide hydrochloride], for which, in the experiment on HCT116 cells, the GI50 is 3.9 µM and the inhibition at 25 µM turned out to be 100%. Further, in the experiment with AMPK, the “AMPK activation effect (%) 5 μM” value amounted to 365%, the “AMPK activation effect (%) 10 μM” value stood at 602% and the AC150 is 0.9 µM.

Consider `Cl.N=C(NC(=N)N1CC=CC1)Nc1ccc(C(F)(F)F)cc1` [Example 5, N1-1,2-dihydropyrrole-N5-(4-trifluoromethyl)phenyl biguanide hydrochloride], for which growth with HCT116 cells was halved (GI50) at 18 µM. In addition, in the experiment with HCT116 cells (100 μM), the inhibition at 100 µM was 99.7%. Further, in the experiment on AMPK, the “AMPK activation effect (%) 10 μM” value amounted to 235%, the “AMPK activation effect (%) 50 μM” value is given as 223% and the AC150 stood at 2.8 µM.

The compound `COc1ccc(NC(=N)NC(=N)N2CC=C(C)C2)cc1OC.Cl` [Example 23, N1-(3-methyl)-1,2-dihydropyrrole-N5-(3,4-dimethoxy)phenyl biguanide hydrochloride] gave a GI50 in the experiment on HCT116 cells of 89.9 µM. Moreover, the inhibition at 100 µM in the experiment on HCT116 cells (100 μM) stood at 29.5%. Further, in the experiment on AMPK, the “AMPK activation effect (%) 10 μM” value came out at 57%, the “AMPK activation effect (%) 50 μM” value came to 279% and the AC150 came out at 21.3 µM.

For `Cl.N=C(NC(=N)N1CC=CC1)Nc1ccc(OC(F)(F)F)cc1` [Example 4, N1-1,2-dihydropyrrole-N5-(4-trifluoromethoxy)phenyl biguanide hydrochloride], halving of growth with HCT116 cells (GI50) required 19.1 µM. The inhibition at 100 µM in the experiment on HCT116 cells (100 μM) amounted to 99.7%. Moreover, in the experiment with AMPK, the “AMPK activation effect (%) 10 μM” value is given as 201%, the “AMPK activation effect (%) 50 μM” value amounted to 584% and the AC150 was found to be 5.0 µM.

As for `CN(C)C(=N)N=C(N)N` [Metformin, reference compound], the “Cell growth inhibition (%) at 100 μM” value with HCT116 cells (100 μM, 48 hours) was 6.5 (at 100 μM ) %. In the experiment on HCT116 cells, this compound gave a GI50 of 2170 µM. In addition, the inhibition at 100 µM in the experiment with HCT116 cells (100 μM) was found to be 6.5%. In the experiment with AMPK, the “AMPK activation effect (%) 50 μM” value is 130% and 130 (at 50 μM) %.

The compound `Cl.N=C(NC(=N)N1CC=CC1)Nc1ccc(OC(F)(F)F)c(Cl)c1` [Example 10, N1-1,2-dihydropyrrole-N5-(3-chloro,4-trifluoromethoxy)phenyl biguanide hydrochloride] gave a GI50 in the experiment with HCT116 cells of 8.3 µM. Further, the inhibition at 100 µM with HCT116 cells (100 μM) amounted to 97.9%. In the experiment on AMPK, the “AMPK activation effect (%) 10 μM” value was 408% and the AC150 was 1.4 µM.

Turning to `CC1CCCCN1C(=N)NC(=N)Nc1ccc(Cl)cc1.Cl` (centres unmarked) [Example 77, N1-(2-methyl)piperidine-N5-(4-chloro)phenyl biguanide hydrochloride], in the experiment with HCT116 cells, growth was halved (GI50) at 11.3 µM and the inhibition at 25 µM worked out at 100%. In the experiment with AMPK, the “AMPK activation effect (%) 5 μM” value amounted to 154%, the “AMPK activation effect (%) 10 μM” value came to 212% and the AC150 worked out at 4.5 µM.

As a reminder, the GI50 is the concentration at which growth is held to half of that of the control. One may read the inhibition as the share of the control response that was lost under treatment.
